Data taken from patent US20140315972A1, “RS)-2-(2-oxo-4-phenylpyrrolidin-1-yl)acetamide compound having modulatory activity with a commensurate effect, pharmaceutical substance (variants) and its application, composition (variants) thereof” (priority 2011, published 2014).
Marks after values point to notes of the source that are not given here.

Key:
rats [1] = assay: Retrograde amnesia of CRPA induced by electroshock and scopolamine, adult rats; format: in vivo
From the text: (§1) Phenotropil has a pronounced mnemotropic and nootropic activity. The results of the study of the antiamnestic activity (classical technique in the equipment manufactured by Lafayette Instrument Co, USA) in the retrograde amnesia of the passive avoidance conditional reflex (CRPA) induced by maximal electroshock (MES) and scopolamine in male rats (180-250 g) are shown in Table 7. […] Taking into account the studies using the open field and cross maze tests, the nootropic action component of the modulatory drug not only may be more pronounced, but is broader in manifestation depending on the type of disorder or in unfamiliar situational conditions. The pronounced nootropic activity of Phenotropil (100, 200, 300 mg/kg) also manifests in rat pups of both sexes 30-35 days of age (Table 7.1) after scopolamine-induced CRPA amnesia.

rats [2] = assay: Scopolamine-induced CRPA amnesia in rats 30-35 days of age; format: in vivo
From the text: as §1
In studying immature animals, it must be considered that to generate CRPA it is required, as was established, to apply higher educational incentives (0.6 mA, 8 pulses vs 5 pulses at 0.45 mA in adult rats) with re-training (after 48 hours). Development of amnesia also requires a higher dose of scopolamine (1.3 mg/kg) in rat pups. […] Phenotropil has not only a psychomodulatory (Ψ-modulatory) activity but also a Ψ-operandmodulatory activity given that the mnemotropic effect is associated with the expression of specific proteins and genes involved in memory, attention and learning.

mice [3] = assay: Hypobaric hypoxia in pressure chamber, adult mice; format: in vivo; conditions: for Duration of life: adult mice, hypobaric hypoxia
rats [4] = assay: Hypobaric hypoxia in 7-day-old rats; format: in vivo
rats [5] = assay: Formalin induced edema, topical application; format: in vivo
Method: To identify and assess the anti-inflammatory action of Phenotropil, a standard technique was used; the carrageenan-induced paw edema in rats (Winter C. et al, 1962). Phenotropil at a dose of 100 mg/kg was administered intragastrically 60 minutes before carrageenan. Control animals received distilled water. Additionally, the topical application by method of formalin induced edema was investigated (subplantar administration of 0.1 ml of 2% formalin solution). Phenotropil for topical use was prepared (1:1) on the standard ointment base carrier at 100 mg/kg of body weight for each animal (150-220 g). The preparation was rubbed in the leg and a gauze patch was applied for 2 hours and 1 hour before the induction of inflammation.

mice [6] = assay: Average life duration (ALD) of mice; format: in vivo
patients [7] = assay: Topical solution on periodontal, enamel and dentin condition; format: in vivo, human; conditions: for Efficacy on a 4-point scale (periodontal, enamel and dentin condition): humans, topical
From the text: Studies of the effects of Phenotropil on condition of paradontium, enamel and dentin with topic application involved men and women (45-54 years) diagnosed with periodontitis, parodontosis and caries. Enrollment of groups by separate indicators in this age failed. In the vast majority of subjects, the diseases were combined. The gender ratio in groups was: 30.0% men and 70.0% women, the ratio of smokers to non-smokers 60:40, the number of female smokers was higher than male smokers by 35.0%. All patients received every three days the required amount of 0.1%, 0.2% or 0.3% solution of Phenotropil or placebo. The solutions were applied daily as dental trays (for 30 sec.) in the morning and evening at 30 ml per application for 30 days. Food and drinks intake, including water, were not recommended for 2 hours after the procedure. All patients underwent a dental check-up and standard hygienic treatment with removing plaque and dental scale and lavaging the gingival pockets with 1% Phenotropil solution. For each subject, the studied parameters were recorded; the aggregate integral indicator of the general periodontal condition of enamel and dentin was calculated, in the negative scores. The examinations were conducted once a week throughout the period of monotherapy. Simultaneous studies were conducted for evaluation of lipid peroxidation state in samples of saliva, at the baseline examination and after the course of therapy.
The positive effect of treatment with Phenotropil was observed after about 14 days and intensified in the course of therapy. Efficacy after one month of treatment with the drug was the highest and most evident at the initial stages of disease and moderate severity of […]. Effect on periodontitis was apparent, but less pronounced. Treatment of periodontitis probably requires a longer course and administration of Phenotropil tablets according to the usual regime to modulate the general functional state of the body. The ranking evaluation of efficacy (0—no effect, 1—slightly pronounced effect below 30.0% in the group, 2—average degree of efficacy from 30.0 to 50.0%, 3—high efficacy, above 50.0%) was established by an integral indicator of the aggregate of all the parameters tested.

patients [8] = assay: Acneiform rash, topical solution; format: in vivo, human; conditions: for Efficacy expressed in % (acne rush during hormonal alteration): humans, topically 0.1% aqueous solution, baseline control = 100
Method: A study of effect of Phenotropil on the scalp and face skin in seborrhea oleosa and on the scalp skin in dry seborrhea, as well in the mixed form, was performed on mixed groups of both sexes (15-37 years). The 0.1% Phenotropil solution was used. In the group with mixed form, additional Phenotropil tablets were administered at a dose of 100 mg per day (in the morning). The baseline examinations were used as control. The prepared samples were rubbed into the scalp once a day 1 or 2 hours before bedtime. In the case of acneiform rash, the skin was wiped in the morning and evening by cotton pads soaked (as usual lotion) by 0.1% aqueous Phenotropil. Washing the hair using shampoo was not recommended. A neutral baby soap “Alice” by OAO Svoboda and the rinse prepared with 25 ml of lemon juice and 100 mg Phenotropil powder per 1000.0 ml water were used. Studies were conducted for 28 calendar days with monitoring examinations every 14 days. In the dry seborrhea group, three patients withdrew from the study after two weeks due to reluctance to undergo further examination; they found it difficult to comply with the regime of the detergents use. The skin state was assessed by a 4-point system, where 0—absent, 1—the effect intensity less than 50.0%, 2—the effect intensity more than 50.0%, 3—the effect intensity more than 80% but less than 100.0% of the cases.

Structure (SMILES): NC(=O)CN1CC(c2ccccc2)CC1=O (racemic) [Compound 1, (RS)-2-(2-oxo-4-phenylpyrrolidine-1-yl)acetamide]
- Latent period of the first entry into the chamber at testing the preservation of CRPA, after 24 hours (rats [1]; ECS amnesia, 25 mg/kg): 65.6* seconds
- Latent period of the first entry into the chamber at testing the preservation of CRPA, after 24 hours (rats [1]; ECS amnesia, 50 mg/kg): 74.4* seconds
- Latent period of the first entry into the chamber at testing the preservation of CRPA, after 24 hours (rats [1]; ECS amnesia, 100 mg/kg): 112.5* seconds
- Latent period of the first entry into the chamber at testing the preservation of CRPA, after 24 hours (rats [1]; scopolamine 1 mg/kg amnesia, 25 mg/kg): 78.8* seconds
- Latent period of the first entry into the chamber at testing the preservation of CRPA, after 24 hours (rats [1]; scopolamine 1 mg/kg amnesia, 50 mg/kg): 96.0* seconds
- Latent period of the first entry into the chamber at testing the preservation of CRPA, after 24 hours (rats [1]; scopolamine 1 mg/kg amnesia, 100 mg/kg): 125.3* seconds
- LP1 (training) (rats [2]; 100 mg/kg): 7.2 ± 2.8
- LP2 (at 24 hours) (rats [2]; 100 mg/kg): 25.2 ± 3.8
- ΔLP (rats [2]; 100 mg/kg): 18.0 ± 2.9
- LP1 (training) (rats [2]; 200 mg/kg): 11.0 ± 3.0
- LP2 (at 24 hours) (rats [2]; 200 mg/kg): 45.2 ± 7.3
- ΔLP (rats [2]; 200 mg/kg): 34.2 ± 9.0
- LP1 (training) (rats [2]; 300 mg/kg): 8.0 ± 3.0
- LP2 (at 24 hours) (rats [2]; 300 mg/kg): 82.4 ± 4.3
- ΔLP (rats [2]; 300 mg/kg): 74.4 ± 3.7
- increase of survival time vs control (mice [3]; 50 mg/kg): 65.0%
- increase of survival time vs control (mice [3]; 100 mg/kg): 147.8%
- increase of survival time vs control (mice [3]; 300 mg/kg): 591.0%
- Duration of life (mice [3]; 50 mg/kg): 3.8 ± 0.5 min
- Duration of life (mice [3]; 100 mg/kg): 5.7 ± 1.2 min
- Duration of life (mice [3]; 300 mg/kg): 15.9 ± 0.4 min
- altitude at which tremor was displayed (rats [4]; 300 mg/kg): 11 thousand meters
- altitude at which tremor was observed (rats [4]; 50 and 100 mg/kg (control 7,000 m)): 10,000 m
- Duration of life of animals (rats [4]; ascension to 11000 m, 50 mg/kg): 6.9 ± 0.7 min
- Duration of life of animals (rats [4]; ascension to 11000 m, 100 mg/kg): 6.9 ± 0.7 min
- Duration of life of animals (rats [4]; ascension to 12000 m, 300 mg/kg): 7.3 ± 0.7 min
- tremor during stay at 11,000 meters for 2 hours (rats [4]; control 11 episodes): tremor was observed only once
- shortening of inflammation vs control (rats [5]; topical 100 mg/kg before formalin): 64.5%
- Effect on formalin edema vs control (100) (rats [5]; topical 100 mg/kg, 2 hours before formalin): −79.9%
- ALD increase vs placebo-treated control (mice [6]; 50 mg/kg): 15.3%
- ALD increase vs placebo-treated control (mice [6]; 100 mg/kg): 29.3%
- ALD increase vs placebo-treated control (mice [6]; 200 mg/kg): 12.5%
- ALD increase vs placebo-treated control (mice [6]; 300 mg/kg): 19.6%
- increase in life duration (mice [6]; doses below 50.0 mg/kg): 8.0-10.0%
- smokers who quit smoking at the third week of therapy (patients [7]; 0.1-0.3% solution as dental trays, 30 days): 25.0%
- Efficacy on a 4-point scale (periodontal, enamel and dentin condition) (patients [7]; Phenotropil 1%): 2* (average degree of efficacy from 30.0 to 50.0%)
- Efficacy on a 4-point scale (periodontal, enamel and dentin condition) (patients [7]; Phenotropil 2%): 3* (high efficacy, above 50.0%)
- Efficacy on a 4-point scale (periodontal, enamel and dentin condition) (patients [7]; Phenotropil 3%): 3* (high efficacy, above 50.0%)
- effect on acne rash (patients [8]; 0.1% solution, one month): 79-84%
- Efficacy expressed in % (acne rush during hormonal alteration) (patients [8]; dry skin): −84 * %
- Efficacy expressed in % (acne rush during hormonal alteration) (patients [8]; oily skin): −79 * %
